Like-named read-outs stand apart in the source and are kept apart here.
Tests used:
human NK1 receptor = human NK1 receptor (Homo sapiens, UniProt P25103); assay: NK1 receptor binding, [3H]substance P displacement, CHO cell membranes
[1] = biological target: T1, Recombinant human NK3 (hNK3) receptor (Homo sapiens, UniProt P29371); assay: NK3 receptor binding, [3H]SR142801 displacement, membrane preparations
T1 construct: expressed in transfected cells
T1 sequence (P29371 1-465): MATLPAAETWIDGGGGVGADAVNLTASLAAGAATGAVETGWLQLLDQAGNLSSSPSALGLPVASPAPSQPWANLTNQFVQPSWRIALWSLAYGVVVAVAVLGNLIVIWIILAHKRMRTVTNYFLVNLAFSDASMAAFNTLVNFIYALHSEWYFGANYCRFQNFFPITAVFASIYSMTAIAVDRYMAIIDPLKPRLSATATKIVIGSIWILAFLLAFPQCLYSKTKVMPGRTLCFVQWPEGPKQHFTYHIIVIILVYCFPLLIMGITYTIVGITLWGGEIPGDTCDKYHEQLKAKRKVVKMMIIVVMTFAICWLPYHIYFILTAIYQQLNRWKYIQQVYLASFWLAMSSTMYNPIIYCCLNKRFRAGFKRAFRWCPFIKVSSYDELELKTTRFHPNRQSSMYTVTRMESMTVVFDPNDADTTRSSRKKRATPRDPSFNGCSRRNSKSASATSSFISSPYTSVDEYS
Protocol: Non specific binding was determined using 10 μM SB222200. Assay buffer consisted of Tris-HCl (50 mM, pH 7.4), BSA (0.1%), MnCl2 (4 mM) and phosphoramidon (1 μM). Membrane preparations of hNK3 receptors (approximately 2.5 μg/well in a 96 well plate) were used to initiate the incubation for 90 min at room temperature. This assay was terminated by rapid filtration under vacuum through GF/C filters, presoaked for 90 min with PEI (0.3%), with 3×0.5 ml washes of ice-cold Tris buffer (50 mM, pH 7.4) containing 0.1% BSA. The radioactivity retained on the filters was measured by scintillation counting. All assays were performed in duplicate in at least two separate experiments.

[2] = first value of the cell pKi NK1/NK3, human NK1 receptor, [3H]substance P
[3] = second value of the cell pKi NK1/NK3, hNK3 receptor, [3H]SR142801
[4] = first value of the cell NK1/NK3, read-out: pKi NK1 (converted)
[5] = second value of the cell NK1/NK3, read-out: pKi NK3 (converted)

human NK1 receptor, sequence (P25103 whole entry): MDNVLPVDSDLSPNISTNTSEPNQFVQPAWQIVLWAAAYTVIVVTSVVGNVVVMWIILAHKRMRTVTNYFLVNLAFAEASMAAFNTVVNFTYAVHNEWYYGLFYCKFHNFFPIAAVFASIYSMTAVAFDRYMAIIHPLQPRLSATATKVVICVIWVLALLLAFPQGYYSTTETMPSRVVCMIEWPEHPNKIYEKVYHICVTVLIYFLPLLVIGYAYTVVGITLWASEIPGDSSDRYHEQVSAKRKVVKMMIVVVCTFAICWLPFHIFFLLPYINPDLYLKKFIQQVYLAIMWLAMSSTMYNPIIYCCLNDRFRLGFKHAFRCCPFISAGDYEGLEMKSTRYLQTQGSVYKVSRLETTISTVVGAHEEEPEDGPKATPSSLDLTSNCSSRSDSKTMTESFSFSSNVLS

Row | Structure (SMILES) | Ki (human NK1 receptor; [2]) [nM] | Ki [1, 3] [nM] | Ki (human NK1 receptor; [4]) [nM] | Ki [1, 5] [nM]
1 | CN(C(=O)C(C)(C)c1cc(Cl)cc(Cl)c1)c1cnc(N2C[C@H](O)C[C@H]2CO)cc1-c1ccccc1Cl [Example 3, (2S,4R)-N-[4-(2-Chloro-phenyl)-6-(4-hydroxy-2-hydroxymethyl-pyrrolidin-1-yl)-pyridin-3-yl]-2-(3,5-dichloro-phenyl)-N-methyl-isobutyramide] | 1.41 | 0.871 | – | –
2 | Cc1cc(F)ccc1-c1cc(N2CC[C@@H](O)[C@H]2CO)ncc1N(C)C(=O)C(C)(C)c1cc(C(F)(F)F)cc(C(F)(F)F)c1 [Example 156, (2R,3R)-2-(3,5-Bis-trifluoromethyl-phenyl)-N-[4-(4-fluoro-2-methyl-phenyl)-6-(3-hydroxy-2-hydroxymethyl-pyrrolidin-1-yl)-pyridin-3-yl]-N-methyl-isobutyramide] | 1.74 | 1.58 | – | –
3 | Cc1cc(F)ccc1-c1cc(N2C[C@H](O)C[C@H]2CO)ncc1N(C)C(=O)C(C)(C)c1cc(F)cc(C(F)(F)F)c1 [Example 25, (2S,4R)-N-[4-(4-Fluoro-2-methyl-phenyl)-6-(4-hydroxy-2-hydroxymethyl-pyrrolidin-1-yl)-pyridin-3-yl]-2-(3-fluoro-5-trifluoromethyl-phenyl)-N-methyl-isobutyramide] | 0.933 | 1.74 | – | –
4 | Cc1cc(-c2cc(N3C[C@H](O)C[C@H]3CO)ncc2N(C)C(=O)C(C)(C)c2cc(C(F)(F)F)cc(C(F)(F)F)c2)ccc1F [Example 211, (2S,4R)-2-(3,5-Bis-trifluoromethyl-phenyl)-N-[4-(4-fluoro-3-methyl-phenyl)-6-(4-hydroxy-2-hydroxymethyl-pyrrolidin-1-yl)-pyridin-3-yl]-N-methyl-isobutyramide] | – | – | 1.66 | 15.5
5 | CN(C(=O)C(C)(C)c1cc(C(F)(F)F)cc(C(F)(F)F)c1)c1cnc(N2C[C@@H](O)C[C@H]2CO)cc1-c1ccc(F)cc1C=O [Example 239, (2S,4S)-2-(3,5-Bis-trifluoromethyl-phenyl)-N-[4-(4-fluoro-2-formyl-phenyl)-6-(4-hydroxy-2-hydroxymethyl-pyrrolidin-1-yl)-pyridin-3-yl]-N-methyl-isobutyramide] | – | – | 1.62 | 1.48
6 | CN(C(=O)C(C)(C)c1cc(C(F)(F)F)cc(C(F)(F)F)c1)c1cnc(N2CC[C@H](O)[C@H]2CO)cc1-c1ccc(F)cc1C=O [Example 273, (2R,3S)-2-(3,5-Bis-trifluoromethyl-phenyl)-N-[4-(4-fluoro-2-formyl-phenyl)-6-(3-hydroxy-2-hydroxymethyl-pyrrolidin-1-yl)-pyridin-3-yl]-N-methyl-isobutyramide] | – | – | 1.45 | 1.55
7 | CN(C(=O)C(C)(C)c1cc(C(F)(F)F)cc(C(F)(F)F)c1)c1cnc(N2CC[C@@H](O)[C@@H](CO)C2)cc1-c1ccccc1Cl (racemic) [Example 194, (3RS,4RS)-2-(3,5-Bis-trifluoromethyl-phenyl)-N-[4′-(2-chloro-phenyl)-4-hydroxy-3-hydroxymethyl-3,4,5,6-tetrahydro-2H-[1,2′]bipyridinyl-5′-yl]-N-methyl-isobutyramide] | 1.66 | 17.4 | – | –
8 | CN(C(=O)C(C)(C)c1cc(C(F)(F)F)cc(C(F)(F)F)c1)c1cnc(N2CCC(N)CC2)cc1-c1ccccc1Cl [Example 112, N-[4-Amino-4′-(2-chloro-phenyl)-3,4,5,6-tetrahydro-2H-[1,2′]bipyridinyl-5′-yl]-2-(3,5-bis-trifluoromethyl-phenyl)-N-methyl-isobutyramide] | 0.562 | 5.5 | – | –
9 | Cc1cc(F)ccc1-c1cc(NC[C@H](C)O)ncc1N(C)C(=O)C(C)(C)c1cc(C(F)(F)F)cc(C(F)(F)F)c1 [Example 77, (S)-2-(3,5-Bis-trifluoromethyl-phenyl)-N-[4-(4-fluoro-2-methyl-phenyl)-6-(2-hydroxy-propylamino)-pyridin-3-yl]-N-methyl-isobutyramide] | 0.646 | 4.79 | – | –

From patent US8404708B2, “Dual NK1/NK3 receptor antagonists” (Hoffmann-La Roche Inc., priority 2004, dated 2013)
